Measured values: patent US8633164B2, “Antimicrobial peptides” (priority 2008, dated 2014)
Converted amounts (≈) assume the structure as drawn. Values belong to the molecule of their own block, whether it stands above or below them. Residues, ends and D or L forms follow the SMILES beside them. No end group written: not given here.

Legend:
[1] = system: LPS; assay: Animal model of endotoxicity (LPS/galactosamine endotoxic shock, mortality); assay type: in vivo, mice; settings: mouse, LPS + galactosamine i.p., 150 μg peptide i.p.
Description: The wild-type LPS of E. coli ATCC 35218 and P. aeruginosa PAO1 were obtained from the aqueous phase of a water-phenol extract and purified by treatment with chaotropic agents and detergents.
Female ICR (CD-1) mice weighing 20-23 g were randomly distributed in experimental groups (n=16). Endotoxic shock was induced in the animals by coinoculation of LPS and galactosamine following the method of Galanos et al. Specifically, each animal received an intraperitoneal injection containing a mixture of 0.3 μg of LPS and 18 mg of galactosamine resuspended in 200 μl of endotoxin-free saline.
Immediately after LPS administration, animals were intraperitoneally inoculated with 150 μg of the test peptide resuspended in 150 μl of pyrogen-free saline containing 10% dimethylformamide as solubilizing agent. To facilitate the therapeutical action of the peptide, mice so treated were gently massaged at the site of inoculation for a few seconds. Animal mortality was monitored at 6 h and 12 h postinoculation and at daily intervals for 5 days.
In each independent experiment a group of animals received 150 μl of pyrogen-free saline containing 150 μg of polymyxin B, a lipopeptide with well known antiendotoxic properties, whereas another group was left untreated.
Results of animal mortality at all experimental time points were globally analyzed using the Kaplan-Meier survival analysis. When the survival plots were parallel, data were compared by the Log-Rank test, whereas for those plots that intersected the “Breslow-Gehan-Wilcoxon”. […]

[2] = system: Acinetobacter baumanii ATCC 19606; assay type: cell-based
Protocol: (§1) The antibacterial activity of the peptides was determined by microdilution susceptibility assays performed in Mueller-Hinton broth. Susceptibility testing was performed following the recommendations of the Clinical Standards Institute (CLSI, formerly NCCLS) [Standards, 2000]. Peptides (2 mg/ml in 4 mM HEPES, pH 7.2) were two-fold diluted in Mueller-Hinton Broth in 96-well microtitre plates to obtain concentrations from 512 to 0.25 μg/ml in a volume of 100 μl. Bacteria were grown on Mueller-Hinton agar plates for 1 to 3 days depending on the growth rate of the bacteria, suspended in 2 ml of 0.9% saline and adjusted to 10^8 CFU/ml. The bacterial suspension was diluted 100-fold in Mueller-Hinton broth, and 0.1 ml of this new dilution (10^5 CFU) was added to the peptide dilutions. The microtiter plates were incubated at 37° C. for 24 h. The minimal inhibitory concentration (MIC) of each peptide against a given bacterial strain was regarded as the minimal concentration of the peptide which prevents the growth of that organism 24 h after inoculation. The bactericidal effect of the peptides was determined, after 24 h incubation at 37° C., by plating 10 μl of the content of non-cloudy wells onto Mueller-Hinton agar plates. Plates were incubated at 37° C. for 1 to 5 days, and a viable count was performed. The minimal bactericidal concentration (MBC) of each peptide for a given bacterial strain was regarded as the minimal concentration of the peptide which kills 99.9% of the colony-forming units (CFU) present in the final inoculum.

[3] = system: Escherichia coli ATCC 25922; assay type: cell-based
Protocol: as §1

[4] = system: Staphylococcus aureus ATCC 25923; assay type: cell-based
Protocol: as §1

[5] = system: Stenotrophomonas Maltophilia 3998-00 CUN; assay type: cell-based
Protocol: as §1

[6] = system: MRSA ATCC 43300; assay type: cell-based, methicillin-resistant Staphylococcus aureus
Protocol: as §1

[7] = system: MRSA CUN 3792-99; assay type: cell-based, methicillin-resistant Staphylococcus aureus
Protocol: as §1

[8] = system: HIV-1 isolate; assay: Anti-HIV action: inhibition of virus replication in T-cell line PM1; assay type: cell-based; settings: 20 μg/ml peptide
Protocol: A T-cell line (PM1) was incubated with a HIV-1 isolate and the infected cells were cultivated in peptide-containing medium. After some days the number of viruses was determined as compared to untreated cells. The number of viruses is determined by the concentrations of the HIV-capsid in the supernatant. FIG. 8 depicts the anti-HIV action of the peptides Pep19-2, -4, 6, and 8 at peptide concentrations of 1, 5, 10, and 20 μg/ml.

[9] = system: LPS-induced cytokine expression in human mononuclear cells; assay: Inhibition of LPS-induced cytokine secretion of human mononuclear cells; assay type: cell-based; settings: comparison of Pep12, 17-1 and 19-1
Protocol: Human mononuclear cells (MNC): heparinized (20 IU/ml) blood obtained from healthy donors was mixed with an equal volume of Hank's balanced solution, layered over Ficoll, and centrifuged for 40 min (21° C., 500 g). The interphase layer of MNC was collected and washed twice in Hank's medium and then resuspended in RPMI 1640 supplemented with 2 mM L-glutamine, 100 U/ml penicillin, and 100 μg/ml streptomycin. MNC (200 μl/well; 5×10^6 cells/ml) were transferred into 96-well culture plates. Twenty microliters of a mixture containing LPS (100 ng/ml or 10 ng/ml) and Gra-pep (10:1 weight % excess) was added to each well. Supernatants were harvested after 4 h incubation at 37° C. under 5% CO2, and TNFα production was measured in a sandwich-ELISA. TNFα was determined in duplicate at two different dilutions and the values from two independent experiments were averaged.

- MIC [2]: 16 µg/mL (≈ 6.13 µM)
- MIC [4]: 15.6 µg/mL (≈ 5.98 µM)
- MIC [5]: 32 µg/mL (≈ 12.3 µM)
- MIC [6]: 16 µg/mL (≈ 6.13 µM)
- MIC [7]: 16 µg/mL (≈ 6.13 µM)
Molecule: N=C(N)NCCC[C@H](NC(=O)[C@H](Cc1ccc(O)cc1)NC(=O)[C@H](CCCCN)NC(=O)[C@H](CCCCN)NC(=O)CN)C(=O)N[C@@H](CCCNC(=N)N)C(=O)N[C@@H](Cc1ccccc1)C(=O)N[C@@H](CCCNC(=N)N)C(=O)N[C@@H](Cc1c[nH]c2ccccc12)C(=O)N[C@@H](CCCCN)C(=O)N[C@@H](Cc1ccccc1)C(=O)N[C@@H](CCCCN)C(=O)NCC(=O)N[C@@H](CCCCN)C(=O)N[C@@H](Cc1c[nH]c2ccccc12)C(=O)N[C@@H](Cc1ccccc1)C(=O)N[C@@H](Cc1c[nH]c2ccccc12)C(=O)N[C@@H](Cc1ccccc1)C(=O)NCC(N)=O [Pep 19-4, GKKYRRFRWKFKGKWFWFG] (H-GKKYRRFRWKFKGKWFWFG-NH2)
- MBC [3]: 15.6 µg/mL (≈ 5.98 µM)

- MIC [2]: 16 µg/mL (≈ 6.01 µM)
- MIC [3]: 15.6 µg/mL (≈ 5.86 µM)
- MIC [4]: 15.6 µg/mL (≈ 5.86 µM)
- MIC [5]: 64 µg/mL (≈ 24 µM)
- MIC [6]: 16 µg/mL (≈ 6.01 µM)
- MIC [7]: 16 µg/mL (≈ 6.01 µM)
Molecule: N=C(N)NCCC[C@H](NC(=O)CNC(=O)[C@H](CCCNC(=N)N)NC(=O)[C@H](Cc1ccccc1)NC(=O)[C@H](CCCCN)NC(=O)[C@H](Cc1c[nH]c2ccccc12)NC(=O)[C@H](CCCNC(=N)N)NC(=O)[C@H](Cc1ccccc1)NC(=O)[C@H](CCCNC(=N)N)NC(=O)[C@H](CCCNC(=N)N)NC(=O)[C@H](Cc1ccc(O)cc1)NC(=O)[C@H](CCCCN)NC(=O)[C@H](CCCCN)NC(=O)CN)C(=O)N[C@@H](Cc1ccccc1)C(=O)N[C@@H](Cc1c[nH]c2ccccc12)C(=O)N[C@@H](Cc1ccccc1)C(=O)N[C@@H](Cc1c[nH]c2ccccc12)C(=O)NCC(N)=O [Pep 19-5, GKKYRRFRWKFRGRFWFWG] (H-GKKYRRFRWKFRGRFWFWG-NH2)
- MBC [3]: 15.6 µg/mL (≈ 5.86 µM)
- % inhibition of virus replication in a T-cell line [8]: 99%

- MIC [2]: 64 µg/mL (≈ 24.1 µM)
- MIC [3]: >500 µg/mL
- MIC [4]: >500 µg/mL
- MIC [5]: 1024 µg/mL (≈ 385 µM)
- MIC [6]: 64 µg/mL (≈ 24.1 µM)
- MIC [7]: 32 µg/mL (≈ 12 µM)
Molecule: CC(C)C[C@H](NC(=O)[C@H](Cc1c[nH]c2ccccc12)NC(=O)[C@H](CC(C)C)NC(=O)[C@H](CCCCN)NC(=O)[C@H](CCC(N)=O)NC(=O)[C@H](CCCCN)NC(=O)[C@H](CS)NC(=O)[C@H](CCCCN)NC(=O)[C@H](CC(C)C)NC(=O)[C@H](CCCCN)NC(=O)[C@H](Cc1ccccc1)NC(=O)[C@H](CCCNC(=N)N)NC(=O)[C@H](CCCNC(=N)N)NC(=O)[C@H](Cc1ccccc1)NC(=O)[C@H](CCCCN)NC(=O)[C@H](CCCCN)NC(=O)[C@H](CS)NC(=O)CN)C(=O)N[C@@H](Cc1c[nH]c2ccccc12)C(=O)N[C@@H](CS)C(=O)NCC(N)=O [Pep 19-6] (H-GCKKFRRFKLKCKQKLWLWCG-NH2)
- MBC [3]: >500 µg/mL
- MBC [4]: >500 µg/mL

- MIC [2]: 16 µg/mL (≈ 6.53 µM)
- MIC [3]: >500 µg/mL
- MIC [4]: >500 µg/mL
- MIC [5]: 645 µg/mL (≈ 263 µM)
- MIC [6]: 16 µg/mL (≈ 6.53 µM)
- MIC [7]: 16 µg/mL (≈ 6.53 µM)
Molecule: N=C(N)NCCC[C@H](NC(=O)[C@H](Cc1ccc(O)cc1)NC(=O)[C@H](CCCCN)NC(=O)[C@H](CCCCN)NC(=O)CN)C(=O)N[C@@H](CCCNC(=N)N)C(=O)N[C@@H](Cc1ccccc1)C(=O)N[C@@H](Cc1c[nH]c2ccccc12)C(=O)N[C@@H](CCCCN)C(=O)N[C@@H](Cc1ccccc1)C(=O)N[C@@H](CCCCN)C(=O)NCC(=O)N[C@@H](CCCCN)C(=O)N[C@@H](Cc1c[nH]c2ccccc12)C(=O)N[C@@H](Cc1ccccc1)C(=O)N[C@@H](Cc1ccccc1)C(=O)N[C@@H](Cc1c[nH]c2ccccc12)C(=O)NCC(N)=O [Pep 19-7, GKKYRRFWKFKGKWFFWG] (H-GKKYRRFWKFKGKWFFWG-NH2)
- MBC [3]: >500 µg/mL
- MBC [4]: >500 µg/mL

- MIC [2]: 16 µg/mL (≈ 6.07 µM)
- MIC [5]: 32 µg/mL (≈ 12.1 µM)
- MIC [6]: 8 µg/mL (≈ 3.03 µM)
- MIC [7]: 8 µg/mL (≈ 3.03 µM)
Molecule: N=C(N)NCCC[C@H](NC(=O)CNC(=O)[C@H](CCCCN)NC(=O)[C@H](Cc1ccccc1)NC(=O)[C@H](CCCCN)NC(=O)[C@H](Cc1c[nH]c2ccccc12)NC(=O)[C@H](CCCNC(=N)N)NC(=O)[C@H](Cc1ccccc1)NC(=O)[C@H](CCCCN)NC(=O)[C@H](CCCCN)NC(=O)[C@H](Cc1ccc(O)cc1)NC(=O)[C@H](CCCNC(=N)N)NC(=O)[C@H](CCCNC(=N)N)NC(=O)CN)C(=O)N[C@@H](Cc1c[nH]c2ccccc12)C(=O)N[C@@H](Cc1ccccc1)C(=O)N[C@@H](Cc1c[nH]c2ccccc12)C(=O)N[C@@H](Cc1ccccc1)C(=O)NCC(N)=O [Pep 19-8, GRRYKKFRWKFKGRWFWFG] (H-GRRYKKFRWKFKGRWFWFG-NH2)
- % inhibition of virus replication in a T-cell line [8]: 99%

More lines, now with the values behind:

Molecule: N=C(N)NCCC[C@H](NC(=O)[C@H](Cc1ccc(O)cc1)NC(=O)[C@H](CCCCN)NC(=O)[C@H](CCCCN)NC(=O)[C@H](CS)NC(=O)CN)C(=O)N[C@@H](CCCNC(=N)N)C(=O)N[C@@H](Cc1ccccc1)C(=O)N[C@@H](CCCNC(=N)N)C(=O)N[C@@H](Cc1c[nH]c2ccccc12)C(=O)N[C@@H](CCCCN)C(=O)N[C@@H](Cc1ccccc1)C(=O)N[C@@H](CCCCN)C(=O)NCC(=O)N[C@@H](CCCCN)C(=O)N[C@@H](Cc1ccccc1)C(=O)N[C@@H](Cc1c[nH]c2ccccc12)C(=O)N[C@@H](Cc1ccccc1)C(=O)N[C@@H](Cc1c[nH]c2ccccc12)C(=O)N[C@@H](CS)C(=O)NCC(N)=O [Pep 19-2] (H-GCKKYRRFRWKFKGKFWFWCG-NH2)
- Dead mice/number of mice, 24 h [1]: 0/10
- Dead mice/number of mice, 48 h [1]: 0/10
- Dead mice/number of mice, 72 h [1]: 0/10
- MIC [2]: 64 µg/mL (≈ 22.7 µM)
- MBC [3]: 512 µg/mL (≈ 182 µM)
- MIC [3]: 128 µg/mL (≈ 45.5 µM)
- MBC [4]: 512 µg/mL (≈ 182 µM)
- MIC [4]: 128 µg/mL (≈ 45.5 µM)
- MIC [5]: 512 µg/mL (≈ 182 µM)
- MIC [6]: 128 µg/mL (≈ 45.5 µM)
- MIC [7]: 1024 µg/mL (≈ 364 µM)

Molecule: GCKKFRRLKWKYKGKFWFWCG (GCKKFRRLKWKYKGKFWFWCG-NH2; cysteine pairing not given here) [Pep 19-1]
- Inhibition of LPS-induced cytokine production [9]: inhibits most strongly

Molecule: KKFRRLKWKYKGKFWFW (Synthetic antimicrobial peptide 1Pep17-1) [Pep 17-1]
- Dead mice/number of mice, 24 h [1]: 7/11
- Dead mice/number of mice, 48 h [1]: 7/11
- Dead mice/number of mice, 72 h [1]: 8/11

Molecule: KKYRRFRWKFKGKFWFW (Synthetic antimicrobial peptide 1Pep17-2) [Pep 17-2]
- Dead mice/number of mice, 24 h [1]: 7/10
- Dead mice/number of mice, 48 h [1]: 7/10
- Dead mice/number of mice, 72 h [1]: 8/11

Molecule: polymyxin B [PMB, reference compound]
- Dead mice/number of mice, 24 h [1]: 0/10
- Dead mice/number of mice, 48 h [1]: 0/10
- Dead mice/number of mice, 72 h [1]: 0/10
